According to PMC10376326, “Novel Acylselenourea Derivatives: Dual Molecules with Anticancer and Radical Scavenging Activity” (Antioxidants, 2023):
Where two headings read alike, the source gives them in different places.

Key:
[1] = parameters: method as in PMID 36671001; conditions: selenoester analogs, 0.03 mg/mL, 90 min; cited from earlier work
[2] = system: MDA-MB-231 (breast) cancer cell line; assay: MTT cell viability assay, MDA-MB-231; assay type: cell-based, human; conditions: Homo sapiens, MDA-MB-231, 48 h; for activity at 10 µM: read-out: Cell growth %, MDA-MB-231, 10 µM, 48 h, MTT; for activity at 50 µM: read-out: Cell growth %, MDA-MB-231, 50 µM, 48 h, MTT
Procedure: (§1) Cell lines were purchased from the American Type Culture Collection (ATCC). Cell lines MDA-MB-231, HTB-54, DU-145, and BEAS-2B were cultured in RPMI 1640 medium (Gibco, Thermo Fisher Scientific, Gaithersburg, MD, USA) supplemented with 10% fetal bovine serum (FBS; Gibco), 100 units/mL penicillin, and […] streptomycin (Gibco). HT-29 cell line was grown in McCoy’s 5A (Gibco), 10% FBS, 100 units/mL penicillin, and 100 μg/mL streptomycin. Cells were maintained at 37 °C and 5% CO2. The culture medium was changed every three days.
(§2) The cell viability of each compound was measured by MTT colorimetric assay. Each compound was dissolved in DMSO at a concentration of 0.01 M. Each compound was tested at two different concentrations (10 and 50 µM) in MDA-MB-231 (breast), HTB-54 (lung), DU-145 (prostate), and HT-29 (colon) human cancer cell lines. Serial dilutions were prepared with supplemented culture medium. […] IC50 and selectivity indexes (SI) were determined.
(§3) Briefly, 1 × 10^4 tumor cells per well were grown in 96-well plates for 24 h. Then, these cells were incubated for 48 h with either DMSO (control) or a different concentration of each of the tested compounds. The cell viability was determined by adding 20 μL of MTT two hours and a half before the termination point. After this time, the culture medium was removed. The resulting formazan crystals were dissolved in 50 μL of DMSO, and the absorbance was measured at 570 nm. Results are expressed as % cell growth. The data were obtained from at least three independent experiments performed in quadruplicate.

[3] = system: DU-145 (prostate) cancer cell line; assay: MTT cell viability assay, DU-145; assay type: cell-based, human; conditions: for activity at 10 µM / activity at 50 µM: Homo sapiens, DU-145, 48 h; for activity at 10 µM: read-out: Cell growth %, DU-145, 10 µM, 48 h, MTT; for activity at 50 µM: read-out: Cell growth %, DU-145, 50 µM, 48 h, MTT
Procedure: as §1, §2, §3

[4] = DPPH radical scavenging assay; assay type: biochemical; conditions: for DPPH Inhibitory%: acylselenourea analogs
Procedure: Different methods are available to quantify the antioxidant capacity of natural or novel molecules. Notable among these are the ABTS^•+ and DPPH^• methods, which measure the quenching efficiency in vitro for known concentrations of preformed radicals. In this work, the DPPH^• colorimetric assay was carried out. Measurements were recorded on a BioTeck PowerWave XS spectrophotometer (BioTeck Instruments, Winooski, VT, USA) and data were collected using KCJunior v.1.41. software (BioTeck Instruments, Winooski, VT, USA). Compounds with potent activity were selected to further determine their protective effect against ROS-induced cell death caused by H2O2.
DPPH colorimetric assay was performed to determine the in vitro radical scavenging activity of the acylselenourea derivatives. DPPH assay was performed as described by Svinyarov. For each acylselenourea, a stock solution of 1 mg/mL in dimethyl sulfoxide (DMSO) was made, and these solutions were used to prepare the different concentrations employed in the assay. The compounds were tested at two different concentrations (0.003 and 0.03 mg/mL). Intermediate solutions were prepared in methanol and a volume of 100 µL of each was added to each well of the plate. Then, 100 µL of DPPH^• (previously prepared at a concentration of 0.04 mg/mL in methanol and preserved in the dark) was added to the previous methanolic acylselenourea solutions. The discoloration of the purple radical to the yellow reduced form was followed at 517 nm at different time points (0, 5, 15, 30, 60, 90, and 120 min). Ascorbic acid and trolox were used as positive controls. All measurements were carried out in triplicate. Results are expressed as the percentage of the radicals scavenged, calculated using the following formula: (1) % DPPH radical scavenging=Acontrol - Asample/Acontrol × 100 where Acontrol refers to the absorbance of the negative control and Asample refers to the absorbance of the tested compounds. Results are expressed as percentage of DPPH radical scavenging ± SD.

[5] = system: non-malignant BEAS-2B lung cell line; assay: MTT cell viability assay, BEAS-2B; assay type: cell-based; conditions: Homo sapiens, normal lung, 48 h
Procedure: as §1, §2, §3

[6] = system: HT-29 (colon) cancer cell line; assay: MTT cell viability assay, HT-29; assay type: cell-based; conditions: Homo sapiens, HT-29, 48 h, read-out: Cell growth %; for activity at 10 µM: HT-29, 10 µM; for activity at 50 µM: HT-29, 50 µM
Procedure: as §1, §2, §3

[7] = system: HTB-54 (lung) cancer cell line; assay: MTT cell viability assay, HTB-54; assay type: cell-based, human; conditions: for activity at 10 µM: read-out: Cell growth %, HTB-54, 10 µM, 48 h, MTT; for activity at 50 µM: read-out: Cell growth %, HTB-54, 50 µM, 48 h, MTT
Procedure: as §1, §2, §3

SMILES | DPPH Inhibitory% [1] [%] | activity at 10 µM [2] [%] | activity at 50 µM [2] [%] | activity at 10 µM [3] [%] | activity at 50 µM [3] [%] | inhibition ([4]; 0.003 mg/mL, 0 min) [%] | inhibition ([4]; 0.003 mg/mL, 5 min) [%] | inhibition ([4]; 0.003 mg/mL, 15 min) [%] | inhibition ([4]; 0.003 mg/mL, 30 min) [%] | inhibition ([4]; 0.003 mg/mL, 60 min) [%] | inhibition ([4]; 0.003 mg/mL, 90 min) [%] | inhibition ([4]; 0.003 mg/mL, 120 min) [%] | inhibition ([4]; 0.03 mg/mL, 0 min) [%] | inhibition ([4]; 0.03 mg/mL, 5 min) [%] | inhibition ([4]; 0.03 mg/mL, 15 min) [%] | inhibition ([4]; 0.03 mg/mL, 30 min) [%] | inhibition ([4]; 0.03 mg/mL, 60 min) [%] | inhibition ([4]; 0.03 mg/mL, 120 min) [%] | DPPH Inhibitory% ([4]; 0.03 mg/mL, 90 min) [%] | activity at 10 µM [6] [%] | also measured
C#CC[Se]C(=O)c1cccs1 [C00003 2-thiophenyl] | 0.0 ± 2.1 | – | – | – | – | – | – | – | – | – | – | – | – | – | – | – | – | – | – | – | –
C#CCNC(=[Se])NC(=O)c1ccc2c(c1)OCO2 [Compound 8.III, N-(prop-2-in-1-ylcarbamoselenoyl)benzo[d][1,3]dioxole-5-carboxamide] | – | 61.9 ± 13.5 | 19.1 ± 9.6 | 63 ± 4.8 | 12.3 ± 7.8 | 1.1 ± 2.3 | 2.4 ± 2.2 | 4.4 ± 2 | 6.2 ± 1.9 | 8.3 ± 1.8 | 9.2 ± 1.8 | 9.7 ± 1.8 | 6.4 ± 2.5 | 17.9 ± 0.9 | 32.8 ± 0.9 | 45.2 ± 2 | 59.7 ± 3.8 | 72.5 ± 8.1 | 62.4 ± 3.1 | 40.3 ± 8.3 | IC50 [5]: > 100 µM; activity at 50 µM [6]: 18.1 ± 5.3%; activity at 10 µM ([7]; Homo sapiens, HTB-54, 48 h): 34.5 ± 9.1%; activity at 50 µM ([7]; Homo sapiens, HTB-54, 48 h): 31.6 ± 6.1%; IC50 ([7]; Homo sapiens, HTB-54, 48 h, read-out: IC50 HTB-54, Lung, MTT, 48 h): 21.7 ± 4.1 µM; SI ([7]; IC50 (BEAS-2B)/IC50 (HTB-54)): >4.6
C=CCNC(=[Se])NC(=O)c1ccccc1 [Compound 5.II, N-(allylcarbamoselenoyl)benzamide] | – | 80.4 ± 8.4 | 15.6 ± 6 | 97.5 ± 18.5 | 10.3 ± 4.9 | 1.3 ± 1.7 | 4.5 ± 1.7 | 7.5 ± 1.7 | 10.4 ± 1.8 | 13.9 ± 1.9 | 16.2 ± 2 | 17.8 ± 2.1 | 13.5 ± 1.3 | 42.4 ± 1.5 | 62.7 ± 0.8 | 80.2 ± 1.1 | 97.2 ± 0.7 | 97.7 ± 1 | 97.4 ± 0.8 | 100 ± 16.6 | time to reach the highest DPPH inhibition ([4]; 0.03 mg/mL): 60 min; activity at 50 µM [6]: 23.9 ± 5%; activity at 10 µM ([7]; Homo sapiens, HTB-54, 48 h): 67.6 ± 14.9%; activity at 50 µM ([7]; Homo sapiens, HTB-54, 48 h): 16.9 ± 4.1%
C#CC[Se]C(=O)c1ccc2c(c1)OCO2 [C00003 5-benzo[d][1, 3]dioxyl] | 4.2 ± 8.0 | – | – | – | – | – | – | – | – | – | – | – | – | – | – | – | – | – | – | – | –
C=CC[Se]C(=O)c1ccccc1 [C00001 phenyl] | 9.0 ± 1.2 | – | – | – | – | – | – | – | – | – | – | – | – | – | – | – | – | – | – | – | –
C=CC[Se]C(=O)C=Cc1ccccc1 [C00001 2-phenylvinyl] | 3.6 ± 5.3 | – | – | – | – | – | – | – | – | – | – | – | – | – | – | – | – | – | – | – | –
C=CC[Se]C(=O)c1cccs1 [C00001 2-thiophenyl] | 7.8 ± 10.4 | – | – | – | – | – | – | – | – | – | – | – | – | – | – | – | – | – | – | – | –
C=CCNC(=[Se])NC(=O)/C=C/c1ccccc1 [Compound 6.II, N-(allylcarbamoselenoyl)cinnamamide] | – | 51.8 ± 6.8 | 30.5 ± 7.1 | 57.3 ± 3.6 | 14.6 ± 4.5 | 0 | 0 | 0 | 0 | 0 | 0.5 ± 2.3 | 1.1 ± 2.3 | 0 | 1 ± 1.7 | 4.6 ± 1.3 | 9.8 ± 1.1 | 18.8 ± 0.9 | 34.2 ± 0.7 | 26.7 ± 0.6 | 94.7 ± 5.3 | cell growth % ([3]; DU-145, 10 µM, 48 h, MTT): 57.30%; activity at 50 µM [6]: 56.1 ± 11%; activity at 10 µM ([7]; Homo sapiens, HTB-54, 48 h): 68.7 ± 8.2%; activity at 50 µM ([7]; Homo sapiens, HTB-54, 48 h): 44.1 ± 10.6%
C=CCNC(=[Se])NC(=O)c1ccc2c(c1)OCO2 [Compound 8.II, N-(allylcarbamoselenoyl)benzo[d][1,3]dioxole-5-carboxamide] | – | 80.7 ± 6.4 | 15.5 ± 7.6 | 88.6 ± 10.1 | 10.3 ± 4.2 | 1.2 ± 1.4 | 2.8 ± 1.3 | 5 ± 1.2 | 7.1 ± 1.1 | 9.7 ± 1.1 | 10.9 ± 1.2 | 11.7 ± 1.2 | 17.6 ± 4.6 | 39 ± 3 | 55.5 ± 2.1 | 68 ± 1.7 | 81.4 ± 1.3 | 93.7 ± 1.4 | 88.2 ± 1.3 | 83.5 ± 16.4 | activity at 50 µM [6]: 26.6 ± 3.8%; activity at 10 µM ([7]; Homo sapiens, HTB-54, 48 h): 51.9 ± 15%; activity at 50 µM ([7]; Homo sapiens, HTB-54, 48 h): 20 ± 6.6%
